According to patent US7897602B2, “Indolinone compounds as kinase inhibitors” (Development Center for Biotechnology, priority 2009, dated 2011):
Where a name gives a salt, the structure may show the parent alone.

Experiments:
Format in all cases: biochemical
[1] = target: T1, Aurora B kinase (Homo sapiens, UniProt Q96GD4); test: Aurora B kinase assay ([γ-33P]ATP, CHOCKtide substrate); details: for inhibition at 1 µM: 1.0 μM test compound
T1 construct: purchased Cell signaling
Procedure, shortened: (§1)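 Recombinant Aurora A (1 ng) or Aurora B (2.5 ng) incubated with test compound, CHOCKtide (1 μg) and [γ-33P]ATP/ATP at 10 μM (Aurora A) or 40 μM (Aurora B), 30 min at 33 °C. Stopped with phosphoric acid; filter-bound 33P counted; IC50 = half-maximal inhibition.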

[2] = target: T2, Aurora A kinase (Homo sapiens, UniProt O14965); test: Aurora A kinase assay ([γ-33P]ATP, CHOCKtide substrate); details: for inhibition at 1 µM: 1.0 μM test compound
T2 construct: purchased Upstate
T2 sequence (O14965 1-403): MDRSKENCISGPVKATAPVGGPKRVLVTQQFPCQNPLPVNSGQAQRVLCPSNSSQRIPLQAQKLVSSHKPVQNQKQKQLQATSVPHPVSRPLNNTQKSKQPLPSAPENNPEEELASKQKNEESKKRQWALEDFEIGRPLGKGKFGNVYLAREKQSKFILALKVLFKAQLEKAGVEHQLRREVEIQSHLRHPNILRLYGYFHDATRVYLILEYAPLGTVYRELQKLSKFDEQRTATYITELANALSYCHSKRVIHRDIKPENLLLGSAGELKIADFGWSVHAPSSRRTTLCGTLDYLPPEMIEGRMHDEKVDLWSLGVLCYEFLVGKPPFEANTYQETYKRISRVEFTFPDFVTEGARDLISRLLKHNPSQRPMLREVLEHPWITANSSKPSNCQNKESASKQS
Procedure, shortened: as §1

[3] = target: T3, PDGFR-β kinase (Homo sapiens, UniProt P09619); test: PDGFR-β kinase assay (33P incorporation into Poly(Glu-Tyr)); details: 500 nM test compound
T3 construct: recombinant N-terminal 6×His-tagged PDGFR-β kinase domain construct expressed by baculovirus; 6xHis (N); made in house
Procedure, shortened: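 His-tagged PDGFR-β kinase domain (55 ng) with Poly(Glu-Tyr) 4:1, 30 μM ATP plus [33P]-γ-ATP, pH 7.0 MnCl2 buffer, and 500 nM compound for 30 min at 30° C. Filter-bound radioactivity counted; inhibition computed relative to DMSO control.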

T1 sequence (Q96GD4 whole entry): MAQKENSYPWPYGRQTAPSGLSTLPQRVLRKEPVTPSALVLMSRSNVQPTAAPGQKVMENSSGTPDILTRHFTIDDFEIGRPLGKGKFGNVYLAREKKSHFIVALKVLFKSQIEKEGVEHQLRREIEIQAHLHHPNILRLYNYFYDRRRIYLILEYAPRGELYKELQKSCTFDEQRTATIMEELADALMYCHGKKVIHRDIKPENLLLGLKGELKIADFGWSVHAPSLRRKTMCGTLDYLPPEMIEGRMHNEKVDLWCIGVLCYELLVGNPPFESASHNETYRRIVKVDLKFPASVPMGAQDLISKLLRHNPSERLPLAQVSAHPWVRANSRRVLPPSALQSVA
T3 sequence (P09619 600-962 limits assumed): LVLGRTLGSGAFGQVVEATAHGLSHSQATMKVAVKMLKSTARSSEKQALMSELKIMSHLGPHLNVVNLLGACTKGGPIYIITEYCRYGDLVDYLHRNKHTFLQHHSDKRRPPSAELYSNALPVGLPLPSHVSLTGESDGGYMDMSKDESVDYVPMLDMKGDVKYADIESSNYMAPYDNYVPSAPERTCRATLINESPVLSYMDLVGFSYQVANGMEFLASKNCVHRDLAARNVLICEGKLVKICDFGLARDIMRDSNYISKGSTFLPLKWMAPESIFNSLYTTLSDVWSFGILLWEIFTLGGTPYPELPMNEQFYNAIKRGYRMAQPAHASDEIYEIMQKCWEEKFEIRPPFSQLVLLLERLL

| SMILES | inhibition at 1 µM [1] | inhibition at 1 µM [2] | inhibition at 0.5 µM [3] | IC50 [1] | IC50 [2] |
| --- | --- | --- | --- | --- | --- |
| O=C(O)CCc1c(/C=C2\C(=O)Nc3ccc(NC(=O)c4ccccc4)cc32)[nH]c2c1C(=O)CCC2 [DCB-70097, (Z)-5-benazmido-3-((3-carboxyethyl-4-oxo-4,5,6,7-tetrahydro-1H-indol-2-yl)methylene)indolin-2-one] | 14.2% | 64.7% | 21.5% | – | – |
| CCOC(=O)CCc1c(/C=C2\C(=O)Nc3cc(-c4ccc(F)cc4)ccc32)[nH]c2c1C(=O)CCC2 [DCB-70098, (Z)-6-(4-fluorophenyl)-3-((3-(3-ethoxy-3-oxopropyl)-4-oxo-4,5,6,7-tetrahydro-1H-indol-2-yl)methylene)indolin-2-one] | 19.5% | 4% | 39.3% | – | – |
| O=C(O)CCc1c(/C=C2\C(=O)Nc3cc(-c4cc(F)cc(F)c4)ccc32)[nH]c2c1C(=O)CCC2 [DCB-70101, (Z)-6-(3,5-difluorophenyl)-3-((3-carboxyethyl-4-oxo-4,5,6,7-tetrahydro-1H-indol-2-yl)methylene)indolin-2-one] | 17.7% | 38.5% | 70.5% | – | – |
| CCOC(=O)CCc1c(/C=C2\C(=O)Nc3ccc(NS(=O)(=O)c4ccccc4)cc32)[nH]c2c1C(=O)CCC2 [DCB-70102, (Z)-5-phenylsulfonamido-3-((3-(3-ethoxy-3-oxopropyl)-4-oxo-4,5,6,7-tetrahydro-1H-indol-2-yl)methylene)indolin-2-one] | 74.3% | 88.8% | 32.8% | 214 nM | 83.5 nM |
| CC(=O)Nc1ccc2c(c1)/C(=C/c1[nH]c3c(c1CCC(=O)O)C(=O)CCC3)C(=O)N2 [DCB-70104, (Z)-5-acetamido-3-((3-carboxyethyl-4-oxo-4,5,6,7-tetrahydro-1H-indol-2-yl)methylene)indolin-2-one] | 12.8% | 83.6% | 27.2% | – | 252 nM |
| O=C(O)CCc1c(/C=C2\C(=O)Nc3ccc(S(=O)(=O)N4CCc5ccccc54)cc32)[nH]c2c1C(=O)CCC2 [DCB-70106, (Z)-5-(indolin-1-ylsulfonyl)-3-((3-carboxyethyl-4-oxo-4,5,6,7-tetrahydro-1H-indol-2-yl)methylene)indolin-2-one] | 70.6% | 99% | 36.3% | 292 nM | 8.1 nM |
| CCOC(=O)CCc1c(/C=C2\C(=O)Nc3ccc(-c4ccc(F)cc4)cc32)[nH]c2c1C(=O)CCC2 [DCB-70108, (Z)-5-(4-fluorophenyl)-3-((3-(3-ethoxy-3-oxopropyl)-4-oxo-4,5,6,7-tetrahydro-1H-indol-2-yl)methylene)indolin-2-one] | 6.8% | 7.5% | 4% | – | – |
| O=C(O)CCc1c(/C=C2\C(=O)Nc3ccc(-c4ccc(F)cc4)cc32)[nH]c2c1C(=O)CCC2 [DCB-70109, (Z)-5-(4-fluorophenyl)-3-((3-carboxyethyl-4-oxo-4,5,6,7-tetrahydro-1H-indol-2-yl)methylene)indolin-2-one] | 1.8% | 69.1% | 22.6% | – | – |
| C=CS(=O)(=O)c1ccc2c(c1)/C(=C/c1[nH]c3c(c1CCC(=O)O)C(=O)CCC3)C(=O)N2 [DCB-70115, (Z)-5-vinylsulfonyl-3-((3-carboxyethyl-4-oxo-4,5,6,7-tetrahydro-1H-indol-2-yl)methylene)indolin-2-one] | 32.5% | 99.4% | 22% | – | – |
| CCS(=O)(=O)c1ccc2c(c1)/C(=C/c1[nH]c3c(c1CCC(=O)O)C(=O)CCC3)C(=O)N2 [DCB-70116, (Z)-5-ethylsulfonyl-3-((3-carboxyethyl-4-oxo-4,5,6,7-tetrahydro-1H-indol-2-yl)methylene)indolin-2-one] | 7% | 100% | 11.2% | – | – |
| CCOC(=O)CCc1c(/C=C2\C(=O)Nc3ccc(NS(=O)(=O)CC)cc32)[nH]c2c1C(=O)CCC2 [DCB-70118, (Z)-5-ethylsulfonamido-3-((3-(3-ethoxy-3-oxopropyl)-4-oxo-4,5,6,7-tetrahydro-1H-indol-2-yl)methylene)indolin-2-one] | 3.2% | 81.2% | 16.1% | – | – |
| CN(C)S(=O)(=O)c1ccc2c(c1)/C(=C/c1[nH]c3c(c1CCC(=O)O)C(=O)CCC3)C(=O)N2 [DCB-70121, (Z)-5-(N,N-dimethylsulfamoyl)-3-((3-carboxyethyl-4-oxo-4,5,6,7-tetrahydro-1H-indol-2-yl)methylene)indolin-2-one] | 46.5% | 97.9% | 16.9% | 1720 nM | – |
| CCOC(=O)CCc1c(/C=C2\C(=O)Nc3cc(F)ccc32)[nH]c2c1C(=O)CCC2 [DCB-70122, (Z)-6-fluoro-3-((3-(3-ethoxy-3-oxopropyl)-4-oxo-4,5,6,7-tetrahydro-1H-indol-2-yl)methylene)indolin-2-one] | 8.3% | 34.1% | 64.3% | – | – |
| O=C(O)CCc1c(/C=C2\C(=O)Nc3cc(F)ccc32)[nH]c2c1C(=O)CCC2 [DCB-70123, (Z)-6-fluoro-3-((3-carboxyethyl-4-oxo-4,5,6,7-tetrahydro-1H-indol-2-yl)methylene)indolin-2-one] | 13.3% | 78.1% | 67.2% | – | – |
| CCN(CC)C(=O)CCc1c(/C=C2\C(=O)Nc3ccc(F)cc32)[nH]c2c1C(=O)CCC2 [DCB-70124, (Z)-N,N-diethyl-3-(2-((5-fluoro-2-oxoindolin-3-ylidene)methyl)-4-oxo-4,5,6,7-tetrahydro-1H-indol-3-yl)propanamide] | 1.4% | 11.9% | 64.3% | – | – |

Results, then the molecule that gave them:

| inhibition at 1 µM [1] | inhibition at 1 µM [2] | inhibition at 0.5 µM [3] | IC50 [1] | IC50 [2] | SMILES |
| --- | --- | --- | --- | --- | --- |
| 30% | 47.5% | 74.6% | – | – | O=C(O)CCc1c(/C=C2\C(=O)Nc3cc(-c4ccc(F)cc4)ccc32)[nH]c2c1C(=O)CCC2 [DCB-70099, (Z)-6-(4-fluorophenyl)-3-((3-carboxyethyl-4-oxo-4,5,6,7-tetrahydro-1H-indol-2-yl)methylene)indolin-2-one] |
| 13.2% | 9.9% | 20.3% | – | – | CCOC(=O)CCc1c(/C=C2\C(=O)Nc3cc(-c4cc(F)cc(F)c4)ccc32)[nH]c2c1C(=O)CCC2 [DCB-70100, (Z)-6-(3,5-difluorophenyl)-3-((3-(3-ethoxy-3-oxopropyl)-4-oxo-4,5,6,7-tetrahydro-1H-indol-2-yl)methylene)indolin-2-one] |
| 80.1% | 98.9% | 51% | 156 nM | 12.3 nM | O=C(O)CCc1c(/C=C2\C(=O)Nc3ccc(NS(=O)(=O)c4ccccc4)cc32)[nH]c2c1C(=O)CCC2 [DCB-70103, (Z)-5-phenylsulfonamido-3-((3-carboxyethyl-4-oxo-4,5,6,7-tetrahydro-1H-indol-2-yl)methylene)indolin-2-one] |
| 23.7% | 36% | 8% | – | – | CN1CCN(S(=O)(=O)c2ccc3c(c2)/C(=C/c2[nH]c4c(c2CCC(=O)O)C(=O)CCC4)C(=O)N3)CC1 [DCB-70107, (Z)-5-(4-methylpiperazin-1-ylsunfonyl)-3-((3-carboxyethyl-4-oxo-4,5,6,7-tetrahydro-1H-indol-2-yl)methylene)indolin-2-one hydrochloride] |
| 60.7% | 99.9% | 5.6% | 494 nM | 14 nM | O=C(O)CCc1c(/C=C2\C(=O)Nc3ccc(S(=O)(=O)N4CCCCC4)cc32)[nH]c2c1C(=O)CCC2 [DCB-70114, (Z)-5-(piperidin-1-ylsulfonyl)-3-((3-carboxyethyl-4-oxo-4,5,6,7-tetrahydro-1H-indol-2-yl)methylene)indolin-2-one] |
| 5.3% | 34.9% | 8.9% | – | – | CNS(=O)(=O)c1ccc2c(c1)/C(=C/c1[nH]c3c(c1CCC(=O)N1CCN(C)CC1)C(=O)CCC3)C(=O)N2 [DCB-70117] |
| 7.3% | 95.4% | 8.3% | – | – | CCS(=O)(=O)Nc1ccc2c(c1)/C(=C/c1[nH]c3c(c1CCC(=O)O)C(=O)CCC3)C(=O)N2 [DCB-70119, (Z)-5-ethylsulfonamido-3-((3-carboxyethyl-4-oxo-4,5,6,7-tetrahydro-1H-indol-2-yl)methylene)indolin-2-one] |
| 21.5% | 50.5% | 7.6% | – | – | CN1CCN(C(=O)CCc2c(/C=C3\C(=O)Nc4ccc(S(=O)(=O)N5CCCC5)cc43)[nH]c3c2C(=O)CCC3)CC1 [DCB-70120, (Z)-3-((3-(3-(4-methylpiperazin-l-yl)-3-oxopropyl)-4-oxo-4,5,6,7-tetrahydro-1H-indol-2-yl)methylene)-5-(pyrrolidin-1-ylsulfonyl)indolin-2-one] |
